These results are taken from a melting point compilation (Tetko et al.).

For the compound `O=C(c1cccs1)c1noc(-c2ccc([N+](=O)[O-])cc2)c1S(=O)(=O)c1ccccc1`, the melting point (usually the temperature of the solid-liquid transition) was 139 °C.

`Fc1ccc2c(c1)Cc1ccccc1-2` returned a melting point of 98 °C.

For the compound `CN(C)S(=O)(=O)Oc1ccc(C#N)cc1`, the melting point is 70 to 73 °C.

`CC(C)COC=O`: the melting point is -95.8 °C.

Regarding `Cc1cc2ccccc2c(-c2ccccc2)n1`, the melting point stood at 87 °C.

The compound `Cc1cccc2c1C(=O)OC2O` (stereo not given) registered a melting point of 117 °C.

`CCCCOC(=O)C=CC(=O)OCCCC`: the melting point is -85 °C.

Turning to `C#CCCCC#C`, the melting point was -85 °C.

As for `Nc1nc(F)nc2c1ncn2C1OC(CO)C(O)C1O` (stereo not given), the melting point amounted to 260 °C.

Regarding `CC1=C(C(=O)OC(C)(C)C)C(c2ccc3c(c2)OCO3)NC(=O)N1` (stereo not given), the melting point was found to be 210 °C.

The compound `BrCC(CBr)(CBr)CBr` returned a melting point of 163 °C.

In the case of `Cc1c(Br)c(Br)c(Br)c(Br)c1Br`, the melting point was found to be 288 °C.

`CC(=O)C=C(C)N` displayed a melting point of 39 °C.

Turning to `COc1ccc(C2c3cc(OC)c(OC)cc3CCN2C(C)=O)cc1OC` (stereo not given), the melting point was in the range of 164 to 165 °C.

The compound `CC12C=C(C(=O)Oc3ccccc3)C(CC1)C2(C)C` (stereo not given) returned a melting point of 64 °C.

The compound `Cc1ccc(C#N)cc1[N+](=O)[O-]` registered a melting point of 106 °C.

The compound `CCOC(=O)c1c(C)oc(N)c1C(=O)OCC` displayed a melting point of 84 to 85 °C.

In the case of `Cc1cc([N+](=O)[O-])cnc1Cl`, the melting point was in the range of 78 to 80 °C.

Turning to `COc1ccc2c(C(=O)c3ccc(Cl)cc3)c(C)n(CC(=O)O)c2c1`, the melting point amounted to 242 °C.

`O=[N+]([O-])c1ccccc1OCCOc1ccccc1[N+](=O)[O-]` showed a melting point of 169 °C.

Regarding `CCCC=CCCC`, the melting point is -90 °C.

For the compound `O=[N+]([O-])c1ccc(CN2CCOCC2)cc1`, the melting point fell in the range of 79.6 to 80 °C.

Regarding `COc1ccc(-c2onc(C(=O)c3ccc([N+](=O)[O-])cc3)c2S(=O)(=O)c2ccccc2)cc1`, the melting point stood at 128 °C.

As to `FC(F)(F)C(F)(F)Cl`, the melting point was -99.4 °C.

On to `CSc1nc(=O)n(C)c2c1CCC2`, for which the melting point was in the range of 145 to 146 °C.

Regarding `COc1ccc(C#N)c(OC(F)(F)F)c1`, the melting point amounted to 32 °C.

In the case of `NC(=O)C(F)(Br)C(F)(F)F` (stereo not given), the melting point lay within 83 to 84 °C.

The compound `CCCCCCCCCCCCCC=CC(O)C(CO)NC(=O)CCCCCCCCCCCCCCCCC` (stereo not given) came in with a melting point of 99 to 101 °C.

In turn, `CCCCCCCCCCCCCN` yielded a melting point of 27.4 °C.

In turn, `COC(=O)C1(C(=O)OC)Cc2cc(OC)ccc2C(=O)O1` came in with a melting point of 134 °C.

`CCOC(=O)c1ccc(OC)cn1` registered a melting point of 39 °C.

`Clc1cccc2c(Cl)cccc12` displayed a melting point of 107 °C.

Compound `Cc1cnc(N)c([N+](=O)[O-])c1` came in with a melting point of 190 to 195 °C.

Take `NC(=O)Nc1ccc(C2=NNC(=O)CC2)cc1`: the melting point is 215 to 218 °C.

In the case of `CCOC(=O)Nc1c([N+](=O)[O-])cc(Cl)cc1[N+](=O)[O-]`, the melting point was determined as 167 °C.

In turn, `Cc1ccc(OCC(=O)O)cc1C` returned a melting point of 163 °C.

`Ic1cn(C(c2ccccc2)(c2ccccc2)c2ccccc2)cn1` had a melting point of 224 to 225 °C.

Regarding `OC1(c2ccc(Cl)c(C(F)(F)F)c2)CCN(CCCC(c2ccc(F)cc2)c2ccc(F)cc2)CC1`, the melting point worked out at 106 °C.

`Brc1ccc2c(c1)CNCC2` registered a melting point of 34 °C.

With `O=C(O)C(=O)Cc1c[nH]c2ccccc12`, the melting point was found to be 215 °C.

As for `O=C(N[N+](=O)[O-])c1ccccc1`, the melting point worked out at 143 °C.

As to `ON=Cc1ccc(OC(F)(F)F)cc1`, the melting point amounted to 41 °C.

`O=C(CCCCl)c1ccc(O)cc1` returned a melting point of 113 °C.

As for `C=COCC(C)C`, the melting point is -112 °C.

The compound `CCC1(CC)C(=O)NC(=S)NC1=O` displayed a melting point of 180 °C.

`Cn1c(=O)c(C2=NNC(=O)C2=NNc2ccncc2)c(O)c2ccccc21` yielded a melting point of 294 °C.

`COc1cccc2[nH]ccc12` gave a melting point of 70 °C.

For the compound `Brc1cccc2c(CNCc3cccc4c(Br)cccc34)cccc12`, the melting point is 142 °C.

With `O=P(c1ccccc1)(c1ccccc1)C1CCCCC1`, the melting point stood at 166 °C.

For the compound `Nc1ncnc2c1ncn2C1OC(CI)C(O)C1O` (stereo not given), the melting point was 178 to 187 °C.

Consider `Cc1cc(C)c(CC(=O)c2oc3ccccc3c2N)c(C)c1`, for which the melting point lay within 188 to 189 °C.

Compound `Cc1onc(-c2c(Cl)cccc2Cl)c1CC#N` came in with a melting point of 75 to 78 °C.

Take `CCOP(=S)(OCC)Oc1ccc2c(C)c(Cl)c(=O)oc2c1`: the melting point was 95 °C.

The compound `N#CC12CC3CC(CC(C3)C1)C2` gave a melting point of 195 °C.

For `Oc1ccnc(S)n1`, the melting point was found to be 300 °C.

In turn, `OCc1ccc(Br)cc1F` returned a melting point of 32 °C.

Consider `CC(C)(C)OC(=O)N1CCN(c2ccc(C=O)cc2)CC1`, for which the melting point was in the range of 118 to 119 °C.

In turn, `CC(C)(C)c1cc(CC#N)cc(C(C)(C)C)c1O` showed a melting point of 111 °C.

As for `NC(=O)C1CCN(CCCN2c3ccccc3Sc3ccc(Cl)cc32)CC1`, the melting point came to 139 °C.

`O=C(O)c1ccccc1CSc1ccccc1` displayed a melting point of 109 to 113 °C.

Consider `Cc1cc2oc(-c3ccccc3)cc(=O)c2cc1Cl`, for which the melting point lay within 174 to 178 °C.

In the case of `Cc1onc(-c2c(F)cccc2Cl)c1C(=O)Cl`, the melting point is 51 °C.

On to `ClC(Cl)C(Cl)C(Cl)Cl`, for which the melting point is -10 °C.

With `O=C(NC(=S)c1ccc[nH]1)Nc1ccccc1`, the melting point lay in the range of 205 to 208 °C.

`O=C(c1ccc(Cl)cc1)C(Br)c1ccccc1` (stereo not given): the melting point was in the range of 65 to 66 °C.

Compound `CCOC(=O)C(=O)C(C#N)c1ccccc1` (stereo not given) displayed a melting point of 127 °C.

In the case of `CCOC(=O)c1ccccc1C(=O)OCC`, the melting point was -40.5 °C.

As for `CCC#CCCCCC(=O)O`, the melting point was found to be 14 °C.

On to `CCCCC(C(=O)O)C(=O)N(Nc1ccccc1)c1ccccc1` (stereo not given), for which the melting point is 116 °C.

`N#Cc1c(O)cccc1F` registered a melting point of 156 °C.

Take `Cc1cc(I)c(C)cc1I`: the melting point lay within 103 to 104 °C.

`CC(C)(C)C(O)C(C)(C)C` came in with a melting point of 50 °C.

With `CCCCCCCCCCCC1CCCC1`, the melting point is -10 °C.

On to `C=C(C)C1CC=C(C)C(=NO)C1` (stereo not given), for which the melting point was 71.5 °C.

As to `COc1cc(C2Nn3c(nnc3-c3ccc([N+](=O)[O-])cc3)S2)ccc1O` (stereo not given), the melting point came to 226 °C.

In the case of `O=S1CCC1`, the melting point was found to be 31.5 °C.

For `SC1=NN=C(S)NN1`, the melting point was in the range of 191 to 193 °C.

On to `O=[N+]([O-])c1ccc(S(=O)(=O)Cl)cc1`, for which the melting point turned out to be 78 °C.

`Cc1nc(S)sc1C` registered a melting point of 166 to 168 °C.

`CC(C)n1nnc2cc(C(=O)O)ccc21` had a melting point of 222 to 227 °C.
